Values joined by “and” are separate entries in the source; they are usually repeats but may differ in a detail not shown here. Identical values can stand only once. “Also recorded” adds a separate entry of the source. Like-named read-outs stand apart in the source and are kept apart here. Starred links: 1 amine or outer side, 2 acyl side, 3 side chain; linkers in the order of their positions; H or OH if unused. Positions of bridges follow the written chain, without caps; N, C: chain ends. Non-standard residues stand in square brackets, D forms with d. Residues, ends and D or L forms follow the SMILES beside them. Chains are numbered I, II in the order given. Actinocin(9to1) = Cc1c2oc3c(C)ccc(C(=O)[*:1])c3nc-2c(C(=O)[*:2])c(N)c1=O; NMeV = CN[C@H](C(=O)O)C(C)C; Sar = CNCC(=O)O
Assays:
[1] = XTT cytotoxicity assay in HeLa cells; conditions: human
Experimental: (§1) HeLa, U937, and Vero cell lines were maintained in culture flasks containing Eagle’s Minimum Essential Medium supplemented with 10% heat-inactivated FBS and 1% antibiotics (100 U/mL penicillin, 100 μg/mL streptomycin, and 250 μg/mL fungizone). The cells were grown at 37 °C in a humidified incubator set at 5% CO2. Cells were subcultured after they formed a monolayer on the flask. The cells were detached by treating them with trypsin-EDTA (0.25% trypsin containing 0.01% EDTA) for 10 minutes and then by adding complete medium to inhibit the reaction. Cytotoxicity was measured by the XTT method using the Cell Proliferation Kit II. The method described by Zheng et al. was used to perform the assay. Cells were seeded (100 μL) in a 96-well microtiter plate (concentration 1 × 10^5 cells/mL). The plate was then incubated for 24 h at 37 °C and 5% CO2 to allow the cells to attach to the bottom of the wells. The compounds were each prepared to a stock solution of 20 mg/mL and added to the microtiter plate. Serial dilutions were made to range from a concentration of 100 μg/mL–0.7 μg/mL for each compound. The microtiter plate was incubated for a further 72 h. The control wells included vehicle-treated cells exposed to 2% DMSO and the positive control Actinomycin D, with concentrations ranging between 0.5 μg/mL and 0.002 μg/mL. After the 72 h incubation period, the XTT reagent (50 μL) was added to a final concentration of 0.3 mg/mL and the plate was then further incubated for another 2 h. After the incubation the absorbance of the color complex was read at 490 nm with a reference wavelength set at 690 nm. […] The IC50 values were reported at ±95% confidence intervals (±95% CI). The results were analyzed using the GraphPad Prism 4 program.

[2] = XTT cytotoxicity assay in Vero cells; conditions: African green monkey
Experimental: as §1

HIV-1 PR = target: T1, HIV-1 PR (Human immunodeficiency virus type 1 group M subtype B, UniProt P04585); assay: HIV-1 protease direct enzyme assay (fluorogenic peptide substrate); format: biochemical; conditions: for inhibition at 100 µg/mL: screened at 100 µg/mL
T1 construct: HIV-1 protease enzyme was purchased from Bachem Bioscience Inc; purchased Bachem Bioscience Inc
Experimental: HIV-1 protease enzyme was purchased from Bachem Bioscience Inc. King of Prussia, PA, […] and the substrate (a synthetic peptide that contains a cleavage site Tyr-Pro for HIV protease as well as two covalently modiﬁed amino acids for the detection of cleavage). The assay was performed according to procedures by Lam et al., 2000 [39], in black 96 well assay plates obtained from Corning Incorporated, (Corning, New York, NY, USA). The fluorescence intensity was measured at an excitation wavelength of 355 nm and an emission wavelength of 460 nm using a synergy microplate spectrofluorometer (BioTek, Analytical & Diagnostic products, South Africa). […] DMSO was included in the enzyme control (1% DMSO). […] The percentage inhibition was calculated based on the formula: 100 − [(Test reagent RFU − background RFU)/(untreated control RFU − blank) × 100] where RFU = relative fluorescence units.
All the experiments were repeated three times in order to ensure the precision and accuracy of the data.

HeLa cells [3] = assay: Real-time cell electronic sensing (RT-CES, xCELLigence) in HeLa cells; format: cell-based; conditions: for inhibition of cell proliferation compared to untreated cells (RT-CES): HeLa, Figure 5
Experimental: The xCELLigence system was used according to the instructions of the supplier (Roche Diagnostics, Mannheim, Germany and ACEA Biosciences, San Diego, CA, USA). HeLa cell line, media, trypsin-EDTA, fetal bovine serum (FBS), phosphate buffer saline (PBS), and antibiotics were supplied by […] Biological (Pty) Ltd. (Modderfontein, Johannesburg, South Africa). The electronic impedance of sensor electrodes that connect the E plate to the instrument is measured to allow monitoring and detection of physiological changes of the cells on the electrodes. The impedance measured between electrodes in an individual well depends on electrode geometry, ion concentration in the well and whether or not cells are attached to the electrodes. In the absence of cells, electrode impedance is mainly determined by the ion environment, both at the electrode/solution interface, and in the bulk solution. In the presence of cells, cells attached to the electrode sensor surfaces will act as insulators and thereby alter the local ion environment at the electrode/solution interface, leading to an increase in impedance. Thus, the more cells that are growing on the electrodes, the larger the value of electrode impedance. This assay has been described for the measurement of cytotoxicity and can be used to determine other cellular parameters such as cell proliferation, cytotoxicity start time, cell recovery, and cell response patterns in real time. HeLa cells were grown and expanded in tissue-culture flasks. After reaching ~75% confluence, the HeLa were washed with PBS, and afterwards detached from the flasks by a brief treatment with trypsin. Subsequently, 50 μL of cell culture media at room temperature was added into each well of E-plate. After this the plate was connected to the system and checked in the cell culture incubator for proper electrical-contacts and the background impedance was measured over 24 h. […] One-hundred microliters of each cell suspension was added to the 50 μL medium containing wells on the E-plate, in order to determine the optimum cell concentration. After 30 min incubation at room temperature, E-plates were placed into the cell culture incubator. Finally, adhesion, growth, and proliferation of the cells was monitored every 30 min for a period of up to 18 h via the incorporated sensor electrode arrays of the E-Plate. The electrical impedance was measured by the RTCA-integrated software of the xCELLigence system as a dimensionless parameter termed Cell index (CI). […] All experiments were run for 72 h after adding the compounds. All calculations were obtained using the RTCA-integrated software of the xCELLigence system.

[4] = XTT cytotoxicity assay in U937 cells; conditions: human
Experimental: as §1

HeLa cells [5] = assay: XTT cytotoxicity assay in HeLa cells; conditions: for IC50: read-out: Cytotoxicity IC50 HeLa, XTT, 72 h incubation
Experimental: as §1

KB = system: KB; set-up: method as in PMID 9722490; conditions: cited from earlier work
[6] = system: human prostate cancer cell line LNCaP; conditions: cited from earlier work
A549 cancer cell lines = conditions: cited from earlier work
HT-29 = conditions: cited from earlier work
P-388 = conditions: cited from earlier work
Vero cell line = assay: XTT cytotoxicity assay in Vero cells; conditions: at 4.85 µM (HIV-1 PR IC50 concentration)
Experimental: as §1

U937 cells = assay: XTT cytotoxicity assay in U937 cells; conditions: at 4.85 µM (HIV-1 PR IC50 concentration)
Experimental: as §1

[7] = HeLa cells, Cytotoxicity IC50 HeLa, XTT, 72 h incubation
[8] = HeLa cells, Cytotoxicity IC50 HeLa, XTT

C=C1CCC(C(C)C)=CC2C1CCC2(C)O (centres unmarked) [Compound 2, alismol]
IC50 at 72 h [1, 7]: 30 ± 17.2 µM | IC50 at 72 h ([2]; Vero cells): 49 µM | IC50 (HIV-1 PR; read-out: IC50 HIV-1 PR): 7.2 ± 0.7 µM | inhibition at 100 µg/mL (HIV-1 PR): 96.2% | RT-CES effect in HeLa (HeLa cells [3]; 16 μg/mL (Figure 5)): cytostatic behavior | RT-CES (xCELLigence) effect in HeLa (HeLa cells [3]; 30 µg/mL): cytostatic effect | inhibition of cell proliferation compared to untreated cells (RT-CES) (HeLa cells [3]): 50%

CO[C@]1(C)CCC(C(C)C)=C[C@H]2[C@H]1CC[C@]2(C)O [Compound 4, 10-O-methyl alismoxide]
IC50 at 72 h [1, 7]: 38 ± 0.7 µM | IC50 at 72 h ([2]; Vero cells): 49.8 ± 0.5 µM | IC50 at 72 h ([4]; U937 cells): 50 ± 0.23 µM

CCCCCCCCCCCCCCCCOC[C@@H](O)CO [Compound 6, (S)-chimyl alcohol]
IC50 at 72 h [1, 7]: 23.4 ± 5.8 µM | IC50 at 72 h ([2]; Vero cells): 60 ± 1.14 µM | IC50 (HIV-1 PR; read-out: IC50 HIV-1 PR): 26.6 ± 2.6 µM | inhibition at 100 µg/mL (HIV-1 PR): 100%

CCCCCCCCCCCCCC=CCCC=CC(O)C(CO)NC(=O)CCCCCCCCCCC (stereo not drawn) [Compound 8, erythro-N-dodecanoyl-docosasphinga-(4E,8E)-dienine]
IC50 at 72 h [1, 7]: 71 µM | IC50 (HeLa cells [5]): 38.2 ± 0.7 µM | IC50 at 72 h ([2]; Vero cells): > 100 µM | IC50 at 72 h ([4]; U937 cells): > 100 µM | IC50 (HIV-1 PR; read-out: IC50 HIV-1 PR): 4.8 ± 0.92 µM | inhibition at 100 µg/mL (HIV-1 PR): 100% | RT-CES (xCELLigence) effect in HeLa (HeLa cells [3]; 100 µg/mL): only affected at long incubation times; also recorded: low level cytotoxicity

C=C(CC[C@@H](C)[C@H]1CCC2C3CC=C4C[C@@H](O)CC[C@]4(C)C3CC[C@@]21C)C(C)C (stereo partly drawn) [Compound 3, 24-methylcholesta-5,24(28)-diene-3β-ol]
IC50 at 72 h [1, 7]: 48 ± 8.7 µM | IC50 at 72 h ([2]; Vero cells): 100 ± 1.2 µM

CC(C)C1=C[C@H]2[C@@H](CC[C@]2(C)O)[C@](C)(O)CC1 [Compound 5, alismoxide]
IC50 at 72 h [1, 7]: > 100 µM | IC50 at 72 h ([2]; Vero cells): > 100 µM | IC50 at 72 h ([4]; U937 cells): > 100 µM | RT-CES effect in HeLa (HeLa cells [3]; 60 μg/mL (Figure 5)): cytostatic behavior | RT-CES (xCELLigence) effect in HeLa (HeLa cells [3]; 100 µg/mL): cytostatic effect | inhibition of cell proliferation compared to untreated cells (RT-CES) (HeLa cells [3]): 50%

C=C(CC[C@@H](C)[C@H]1CCC2C3C(CC[C@@]21C)[C@@]1(CO)CC[C@H](O)CC1=C[C@@H]3O)C(C)C (stereo partly drawn) [Compound 9, 24-methylcholesta-5,24(28)-diene-3β,7β,19-triol]
IC50 at 72 h ([1]; Cytotoxicity IC50 HeLa): 3.4 µg/mL and 8 µM | IC50 at 72 h [2]: 11.4 ± 0.04 µM | IC50 at 72 h [4]: 16.4 ± 1.25 µM | Cytotoxicity KB (KB): 0.58 µg/mL | Cytotoxicity IC50 LNCaP [6]: 4.9 µg/mL | Cytotoxicity A549 (A549 cancer cell lines): 0.69 µg/mL | Cytotoxicity HT-29 (HT-29): 0.72 µg/mL | Cytotoxicity P-388 (P-388): 0.24 µg/mL

CC1=CCCC(C)=CCC(O)(C(C)C)CCC(C)=CCC1 (centres unmarked) [Compound 1, sarcophytol M]
IC50 at 72 h [1, 8]: 8.1 µg/mL | IC50 at 72 h [1, 7]: 27.5 ± 0.2 µM | IC50 at 72 h ([2]; Vero cells): 22 ± 0.2 µM | IC50 at 72 h ([4]; U937 cells): 31.7 ± 3.2 µM | IC50 (HIV-1 PR; read-out: IC50 HIV-1 PR): 15.7 ± 0.1 µM | inhibition at 100 µg/mL (HIV-1 PR): 100%

Cc1c2oc3c(C)ccc(C(=O)N[C@@H]4C(=O)N[C@H](C(C)C)C(=O)N5CCC[C@H]5C(=O)N(C)CC(=O)N(C)[C@@H](C(C)C)C(=O)O[C@@H]4C)c3nc-2c(C(=O)N[C@@H]2C(=O)N[C@H](C(C)C)C(=O)N3CCC[C@H]3C(=O)N(C)CC(=O)N(C)[C@@H](C(C)C)C(=O)O[C@@H]2C)c(N)c1=O [Actinomycin D, reference compound] (I: T[dV]P[Sar][NMeV] / II: T[dV]P[Sar][NMeV]; ester I:1-I:C, II:1-II:C; linker I:N-II:N via Actinocin(9to1))
IC50 at 72 h [1]: 5.1 ± 0.1 µM | IC50 at 72 h [2]: 8.8 ± 2.5 µM | IC50 at 72 h [4]: 1.9 ± 0.865 µM

C=C(CCC(C)C1CCC2C3C(OC(C)=O)C=C4CC(O)CCC4(CO)C3CCC12C)C(C)C (stereo not drawn) [Compound 7, 7β-acetoxy-24-methylcholesta-5-24(28)-diene-3,19-diol]
CC50 at 72 h ([1]; HeLa cells): 4.3 ± 0.75 µM | IC50 at 72 h [1, 8]: 4.3 µg/mL | IC50 at 72 h [1, 7]: 4.3 µM | cell death in HeLa (HeLa cells [5]; at 4.85 µM (HIV-1 PR IC50 concentration)): 50% | IC50 (HeLa cells [5]): 5.3 ± 0.6 µM | IC50 at 72 h ([2]; Vero cells): 31.3 ± 14 µM | effect in Vero (normal cells) (Vero cell line): no effect | IC50 at 72 h [4]: 7.8 µg/mL and 10.6 µM | cell death in U937 (U937 cells): 20% | IC50 (HIV-1 PR): 4.85 ± 0.18 µM | inhibition at 100 µg/mL (HIV-1 PR): 71.5% | RT-CES response in HeLa (HeLa cells [3]; 2.5 µg/mL): dose dependent cytostatic response; also recorded: cytostatic effects | RT-CES response in HeLa (HeLa cells [3]; 10 and 5 µg/mL): dose dependent cytotoxic response; also recorded: dose dependent cytotoxic tendency | RT-CES cytotoxicity profile in HeLa (HeLa cells [3]; tested at IC50s obtained by XTT): confirmed their cytotoxic effects; also recorded: more toxic than the positive control | Cytotoxicity KB (KB): 0.38 µg/mL | Cytotoxicity IC50 LNCaP [6]: 15.5 µg/mL | Cytotoxicity A549 (A549 cancer cell lines): 0.81 µg/mL | Cytotoxicity HT-29 (HT-29): 0.87 µg/mL | Cytotoxicity P-388 (P-388): 0.42 µg/mL
